US20250205344A1, “2,4-DIOXOTETRAHYDROPYRIMIDINYL DERATIVES AS DEGRONS IN PROTACS” (GLAXOSMITHKLINE INTELLECTUAL PROPERTY DEVELOPMENT LIMITED, priority 2022, published 2025)
Structures can show the parent of a compound that is named as a salt.

Molecular target: T1, Androgen Receptor (Homo sapiens, UniProt P10275, T878A)
T1 construct: the AR gene was modified, using CRISPR/Cas9 editing, so the expressed AR protein included an 11 amino acid HiBiT tag; endogenous in cells; host or cells: clonal LnCaP-derived line, AR gene edited by CRISPR/Cas9
T1 sequence (P10275 whole entry T878A): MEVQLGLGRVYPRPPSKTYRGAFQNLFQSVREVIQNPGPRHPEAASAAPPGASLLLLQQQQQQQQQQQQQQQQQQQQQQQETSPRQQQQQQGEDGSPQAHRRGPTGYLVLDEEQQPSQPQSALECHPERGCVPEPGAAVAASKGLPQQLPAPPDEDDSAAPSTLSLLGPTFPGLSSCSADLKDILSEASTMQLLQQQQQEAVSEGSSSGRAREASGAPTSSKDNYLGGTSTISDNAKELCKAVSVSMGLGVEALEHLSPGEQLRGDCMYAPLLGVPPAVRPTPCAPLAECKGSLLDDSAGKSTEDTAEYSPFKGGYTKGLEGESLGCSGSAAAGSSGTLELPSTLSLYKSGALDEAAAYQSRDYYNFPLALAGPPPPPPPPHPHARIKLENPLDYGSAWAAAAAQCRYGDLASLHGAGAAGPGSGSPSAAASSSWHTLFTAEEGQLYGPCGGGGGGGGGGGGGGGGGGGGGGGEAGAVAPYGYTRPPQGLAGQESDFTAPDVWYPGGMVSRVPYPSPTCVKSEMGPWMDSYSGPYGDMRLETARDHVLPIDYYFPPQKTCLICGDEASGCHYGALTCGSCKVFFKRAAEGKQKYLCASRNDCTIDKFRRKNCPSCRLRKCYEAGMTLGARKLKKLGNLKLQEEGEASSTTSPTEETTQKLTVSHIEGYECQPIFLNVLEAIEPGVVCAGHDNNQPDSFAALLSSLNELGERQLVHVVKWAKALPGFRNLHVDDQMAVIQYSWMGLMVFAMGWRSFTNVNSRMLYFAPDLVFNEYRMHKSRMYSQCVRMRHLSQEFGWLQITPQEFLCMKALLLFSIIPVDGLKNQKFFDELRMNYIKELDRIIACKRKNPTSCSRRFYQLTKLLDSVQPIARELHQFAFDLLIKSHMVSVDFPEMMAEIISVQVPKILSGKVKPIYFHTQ
T1 sequence (Q96SW2 whole entry partner): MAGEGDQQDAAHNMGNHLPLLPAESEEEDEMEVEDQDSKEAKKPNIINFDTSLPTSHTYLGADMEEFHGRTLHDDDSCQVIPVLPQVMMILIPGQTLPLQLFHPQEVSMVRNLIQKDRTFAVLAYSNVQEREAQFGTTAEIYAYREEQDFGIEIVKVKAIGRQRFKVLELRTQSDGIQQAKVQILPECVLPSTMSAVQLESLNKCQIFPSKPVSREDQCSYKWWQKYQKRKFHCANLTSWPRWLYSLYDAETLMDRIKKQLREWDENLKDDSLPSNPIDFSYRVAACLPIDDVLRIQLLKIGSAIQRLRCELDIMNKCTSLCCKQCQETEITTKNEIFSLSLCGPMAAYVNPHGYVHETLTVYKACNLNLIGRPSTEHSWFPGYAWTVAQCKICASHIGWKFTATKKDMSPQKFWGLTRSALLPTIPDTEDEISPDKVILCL
T1 sequence (Q16531 whole entry partner): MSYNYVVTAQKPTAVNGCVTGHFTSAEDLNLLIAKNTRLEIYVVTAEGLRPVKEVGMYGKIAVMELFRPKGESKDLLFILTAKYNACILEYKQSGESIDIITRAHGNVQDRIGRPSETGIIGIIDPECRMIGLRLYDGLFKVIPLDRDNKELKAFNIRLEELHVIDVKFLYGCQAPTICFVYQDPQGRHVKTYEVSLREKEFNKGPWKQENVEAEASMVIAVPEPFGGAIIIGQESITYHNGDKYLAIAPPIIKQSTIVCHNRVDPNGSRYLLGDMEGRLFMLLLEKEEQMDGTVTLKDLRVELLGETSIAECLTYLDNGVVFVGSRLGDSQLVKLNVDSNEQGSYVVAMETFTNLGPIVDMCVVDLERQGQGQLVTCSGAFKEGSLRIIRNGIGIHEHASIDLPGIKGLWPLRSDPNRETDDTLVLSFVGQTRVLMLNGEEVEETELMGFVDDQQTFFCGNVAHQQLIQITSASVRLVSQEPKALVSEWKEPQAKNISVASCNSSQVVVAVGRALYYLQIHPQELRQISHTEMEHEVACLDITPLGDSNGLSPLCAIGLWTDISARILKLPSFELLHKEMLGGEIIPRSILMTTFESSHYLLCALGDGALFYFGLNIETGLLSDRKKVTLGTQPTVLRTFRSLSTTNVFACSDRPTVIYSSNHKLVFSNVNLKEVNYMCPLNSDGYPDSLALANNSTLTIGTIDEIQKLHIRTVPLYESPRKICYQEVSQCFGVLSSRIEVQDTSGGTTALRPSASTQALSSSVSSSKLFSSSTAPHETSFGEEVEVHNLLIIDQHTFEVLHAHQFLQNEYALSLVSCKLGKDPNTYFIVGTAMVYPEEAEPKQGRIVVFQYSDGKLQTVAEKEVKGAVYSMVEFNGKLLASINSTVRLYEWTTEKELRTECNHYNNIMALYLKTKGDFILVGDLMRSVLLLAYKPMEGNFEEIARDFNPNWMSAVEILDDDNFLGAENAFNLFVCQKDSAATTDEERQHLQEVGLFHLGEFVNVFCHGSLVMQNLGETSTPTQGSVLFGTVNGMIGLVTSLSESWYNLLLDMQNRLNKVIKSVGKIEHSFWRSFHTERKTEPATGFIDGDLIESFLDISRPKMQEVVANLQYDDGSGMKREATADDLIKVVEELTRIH
Assay: Androgen Receptor Degradation Assay (Nano-Glo HiBiT)
Assay type: cell-based
Details: LNCaP, 18 h, HiBiT-tagged AR in human LnCaP cells, read-out: mean asymptote max
How it was run: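 LnCaP cells with CRISPR-knocked-in N-terminal HiBiT-tagged AR (10,000/well) treated 18 h at 37 °C with PROTACs over 11 threefold concentrations; lytic HiBiT luminescence normalised to DMSO (0%) and cell-free (100%) controls. Relative DC50 = 4-parameter fit inflection; absolute DC50 = 50% degradation interpolation; Dmax = maximum observed degradation.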

Compound N#Cc1ccc(O[C@H]2CC[C@H](NC(=O)c3ccc(N4CCC(CN5CCC(n6ccc7c(N8CCC(=O)NC8=O)cccc76)CC5)CC4)cc3F)CC2)cc1Cl [EAR187, N-((1r,4r)-4-(3-Chloro-4-cyanophenoxy)cyclohexyl)-4-(4-((4-(4-(2,4-dioxotetrahydropyrimidin-1(2H)-yl)-1H-indol-1-yl)piperidin-1-yl)methyl)piperidin-1-yl)-2-fluorobenzamide] has a Dmax of at least 50%.
With N#Cc1ccc(O[C@H]2CC[C@H](NC(=O)c3ccc(O[C@H]4CCN(C(=O)CN5CCC(n6ccc7c(N8CCC(=O)NC8=O)cccc76)CC5)C4)nn3)CC2)cc1Cl [EAR188, N-((1r,4S)-4-(3-Chloro-4-cyanophenoxy)cyclohexyl)-6-(((S)-1-(2-(4-(4-(2,4-dioxotetrahydropyrimidin-1(2H)-yl)-1H-indol-1-yl)piperidin-1-yl)acetyl)pyrrolidin-3-yl)oxy)pyridazine-3-carboxamide] the Dmax was at least 50%.
Compound N#Cc1ccc(O[C@H]2CC[C@H](NC(=O)c3cnc(N4CCC(CN5CCC(n6ncc7c(N8CCC(=O)NC8=O)c(F)ccc76)CC5)CC4)cn3)CC2)cc1C(F)(F)F [EAR189, N-((1r,4r)-4-(4-Cyano-3-(trifluoromethyl)phenoxy)cyclohexyl)-5-(4-((4-(4-(2,4-dioxotetrahydropyrimidin-1(2H)-yl)-5-fluoro-1H-indazol-1-yl)piperidin-1-yl)methyl)piperidin-1-yl)pyrazine-2-carboxamide hydrochloride] has a Dmax of at least 50%.
Compound N#Cc1ccc(O[C@H]2CC[C@H](NC(=O)c3cnc(N4CCC(CN5CCC(n6ncc7c(N8CCC(=O)NC8=O)c(F)ccc76)CC5)CC4)cn3)CC2)cc1Cl [EAR190, N-((1r,4r)-4-(3-Chloro-4-cyanophenoxy)cyclohexyl)-5-(4-((4-(4-(2,4-dioxotetrahydropyrimidin-1(2H)-yl)-5-fluoro-1H-indazol-1-yl)piperidin-1-yl)methyl)piperidin-1-yl)pyrazine-2-carboxamide hydrochloride] has a Dmax of at least 50%.
In the case of N#Cc1ccc(O[C@H]2CC[C@H](NC(=O)c3ccc(N4CCC5(CC4)CC(N4CCC(n6ccc7c(N8CCC(=O)NC8=O)cccc76)CC4)C5)nn3)CC2)cc1Cl [EAR193, N-((1r,4r)-4-(3-Chloro-4-cyanophenoxy)cyclohexyl)-6-(2-(4-(4-(2,4-dioxotetrahydropyrimidin-1(2H)-yl)-1H-indol-1-yl)piperidin-1-yl)-7-azaspiro[3.5]nonan-7-yl)pyridazine-3-carboxamide], the Dmax is reported as at least 50%.
Work on N#Cc1ccc(O[C@H]2CC[C@H](NC(=O)c3ccc(N4CCN(CC5CCC(n6ccc7c(N8CCC(=O)NC8=O)cccc76)CC5)CC4)nn3)CC2)cc1Cl (stereo partly shown) [EAR194, N-((1r,4r)-4-(3-Chloro-4-cyanophenoxy)cyclohexyl)-6-(4-((4-(4-(2,4-dioxotetrahydropyrimidin-1(2H)-yl)-1H-indol-1-yl)cyclohexyl)methyl)piperazin-1-yl)pyridazine-3-carboxamide, trifluoroacetic acid salt] yielded a Dmax of at least 50%.
For N#Cc1ccc(O[C@H]2CC[C@H](NC(=O)c3ccc(N4CCC(CN5CCC(n6ccc7c(N8CCC(=O)NC8=O)ncnc76)CC5)CC4)cc3)CC2)cc1Cl [EAR195, N-((1r,4r)-4-(3-chloro-4-cyanophenoxy)cyclohexyl)-4-(4-((4-(4-(2,4-dioxotetrahydropyrimidin-1(2H)-yl)-7H-pyrrolo[2,3-d]pyrimidin-7-yl)piperidin-1-yl)methyl)piperidin-1-yl)benzamide hydrochloride], the Dmax was at least 50%.
For N#Cc1ccc(O[C@H]2CC[C@H](NC(=O)c3cnc(N4CCC(CN5CCC(n6ccc7c(N8CCC(=O)NC8=O)ncnc76)CC5)CC4)cn3)CC2)cc1Cl [EAR196, N-((1r,4r)-4-(3-Chloro-4-cyanophenoxy)cyclohexyl)-5-(4-((4-(4-(2,4-dioxotetrahydropyrimidin-1(2H)-yl)-7H-pyrrolo[2,3-d]pyrimidin-7-yl)piperidin-1-yl)methyl)piperidin-1-yl)pyrazine-2-carboxamide hydrochloride], the Dmax was at least 50%.
N#Cc1ccc(O[C@H]2CC[C@H](NC(=O)c3ccc(N4CCC(CN5CCC(n6ccc7c(N8CCC(=O)NC8=O)nccc76)CC5)CC4)cc3)CC2)cc1Cl [EAR197, N-((1r,4r)-4-(3-Chloro-4-cyanophenoxy)cyclohexyl)-4-(4-((4-(4-(2,4-dioxotetrahydropyrimidin-1(2H)-yl)-1H-pyrrolo[3,2-c]pyridin-1-yl)piperidin-1-yl)methyl)piperidin-1-yl)benzamide] showed a Dmax of at least 50%.
With N#Cc1ccc(O[C@H]2CC[C@H](NC(=O)c3ccc(N4CCC(CN5CCC(n6ncc7c(N8CCC(=O)NC8=O)nccc76)CC5)CC4)cc3)CC2)cc1Cl [EAR199, N-((1r,4r)-4-(3-Chloro-4-cyanophenoxy)cyclohexyl)-4-(4-((4-(4-(2,4-dioxotetrahydropyrimidin-1(2H)-yl)-1H-pyrazolo[4,3-c]pyridin-1-yl)piperidin-1-yl)methyl)piperidin-1-yl)benzamide] the Dmax was at least 50%.
With N#Cc1ccc(O[C@H]2CC[C@H](NC(=O)c3cnc(N4CCC(CN5CCC(n6ccc7c(N8CCC(=O)NC8=O)ncnc76)CC5)CC4)nc3)CC2)cc1Cl [EAR200, N-((1r,4r)-4-(3-Chloro-4-cyanophenoxy)cyclohexyl)-2-(4-((4-(4-(2,4-dioxotetrahydropyrimidin-1(2H)-yl)-7H-pyrrolo[2,3-d]pyrimidin-7-yl)piperidin-1-yl)methyl)piperidin-1-yl)pyrimidine-5-carboxamide hydrochloride] the Dmax was at least 50%.
CN(c1ccc(C#N)c(Cl)c1)[C@H]1CC[C@H](NC(=O)c2ccc(N3CCC(CN4CCC(n5ccc6c(N7CCC(=O)NC7=O)cc(F)cc65)CC4)CC3)nn2)CC1 [EAR201, N-((1r,4r)-4-((3-Chloro-4-cyanophenyl)(methyl)amino)cyclohexyl)-6-(4-((4-(4-(2,4-dioxotetrahydropyrimidin-1(2H)-yl)-6-fluoro-1H-indol-1-yl)piperidin-1-yl)methyl)piperidin-1-yl)pyridazine-3-carboxamide hydrochloride] gave a Dmax of at least 50%.
N#Cc1ccc(O[C@H]2CC[C@H](NC(=O)c3cnc(N4CCC(CN5CCC(n6ccc7c(N8CCC(=O)NC8=O)cc(F)cc76)CC5)CC4)cn3)CC2)cc1Cl [EAR202, N-((1r,4r)-4-(3-Chloro-4-cyanophenoxy)cyclohexyl)-5-(4-((4-(4-(2,4-dioxotetrahydropyrimidin-1(2H)-yl)-6-fluoro-1H-indol-1-yl)piperidin-1-yl)methyl)piperidin-1-yl)pyrazine-2-carboxamide hydrochloride] was tested, and the Dmax was at least 50%.
With N#Cc1ccc(O[C@H]2CC[C@H](NC(=O)c3cnc(N4CCC(CN5CCC(n6ncc7c(N8CCC(=O)NC8=O)nccc76)CC5)CC4)cn3)CC2)cc1Cl [EAR203, N-((1r,4r)-4-(3-Chloro-4-cyanophenoxy)cyclohexyl)-5-(4-((4-(4-(2,4-dioxotetrahydropyrimidin-1(2H)-yl)-1H-pyrazolo[4,3-c]pyridin-1-yl)piperidin-1-yl)methyl)piperidin-1-yl)pyrazine-2-carboxamide hydrochloride] the Dmax was at least 50%.
With N#Cc1ccc(O[C@H]2CC[C@H](NC(=O)c3ccc(N4CCC(CN5CCC(n6ccc7c(N8CCC(=O)NC8=O)nccc76)CC5)CC4)nn3)CC2)cc1C(F)(F)F [EAR204, N-((1r,4r)-4-(4-Cyano-3-(trifluoromethyl)phenoxy)cyclohexyl)-6-(4-((4-(4-(2,4-dioxotetrahydropyrimidin-1(2H)-yl)-1H-pyrrolo[3,2-c]pyridin-1-yl)piperidin-1-yl)methyl)piperidin-1-yl)pyridazine-3-carboxamide] the Dmax was at least 50%.
Work on N#Cc1ccc(O[C@H]2CC[C@H](NC(=O)c3ccc(N4CCC(CN5CCC(n6ccc7c(N8CCC(=O)NC8=O)cccc76)CC5)CC4)c(F)c3)CC2)cc1Cl [EAR206, N-((1r,4r)-4-(3-Chloro-4-cyanophenoxy)cyclohexyl)-4-(4-((4-(4-(2,4-dioxotetrahydropyrimidin-1(2H)-yl)-1H-indol-1-yl)piperidin-1-yl)methyl)piperidin-1-yl)-3-fluorobenzamide] yielded a Dmax of at least 50%.
N#Cc1ccc(O[C@H]2CC[C@H](NC(=O)c3ccc(N4CCC(CN5CCC(n6ncc7c(N8CCC(=O)NC8=O)nccc76)CC5)CC4)nn3)CC2)cc1C(F)(F)F [EAR209, N-((1r,4r)-4-(4-cyano-3-(trifluoromethyl)phenoxy)cyclohexyl)-6-(4-((4-(4-(2,4-dioxotetrahydropyrimidin-1(2H)-yl)-1H-pyrazolo[4,3-c]pyridin-1-yl)piperidin-1-yl)methyl)piperidin-1-yl)pyridazine-3-carboxamide] was tested, and the Dmax was at least 50%.
For N#Cc1ccc(O[C@H]2CC[C@H](NC(=O)c3ccc(N4CCC(CN5CCC(n6ncc7c(N8CCC(=O)NC8=O)ccnc76)CC5)CC4)nn3)CC2)cc1C(F)(F)F [EAR210, N-((1r,4r)-4-(4-Cyano-3-(trifluoromethyl)phenoxy)cyclohexyl)-6-(4-((4-(4-(2,4-dioxotetrahydropyrimidin-1(2H)-yl)-1H-pyrazolo[3,4-b]pyridin-1-yl)piperidin-1-yl)methyl)piperidin-1-yl)pyridazine-3-carboxamide], the Dmax was at least 50%.
Work on N#Cc1ccc(O[C@H]2CC[C@H](NC(=O)c3cnc(N4CCC(CN5CCC(n6ccc7c(N8CCC(=O)NC8=O)nccc76)CC5)CC4)nc3)CC2)cc1Cl [EAR211, N-((1r,4r)-4-(3-chloro-4-cyanophenoxy)cyclohexyl)-2-(4-((4-(4-(2,4-dioxotetrahydropyrimidin-1(2H)-yl)-1H-pyrrolo[3,2-c]pyridin-1-yl)piperidin-1-yl)methyl)piperidin-1-yl)pyrimidine-5-carboxamide hydrochloride] yielded a Dmax of at least 50%.
